# Measured values: patent US8030452B2, “IFBM'S to promote the specific attachment of target analytes to the surface of orthopedic implants” (priority 2004, dated 2011)
# What was measured:
# BMP on collagen sponge = BMP on collagen sponge (Homo sapiens, UniProt P12643)
# Experimental: To each well, a 2/16″ diameter collagen sponge (Medtronic) was added. The collagen and peptide solutions were allowed to incubate for 1.5 hours at room temperature. Sponges were then rinsed three times with 200 μL Medtronic buffer at 2200 rpm for 1 minute. To each sponge, a primary antibody directed at BMP (diluted 1:1000; R&D Systems #MAB3552) was added for 1 hour at room temperature. A secondary antibody conjugated to alkaline phosphatase (1:5000) was then incubated in the system for 0.5 hour at room temperature.
# BMP-2 = target: T1, BMP-2 (Homo sapiens, UniProt P12643); assay: Binding of biotinylated peptides to BMP-2 (FIG. 12); settings: biotinylated peptide
# T1 construct: purchased Medtronic
# T1 sequence (P12643 283-396): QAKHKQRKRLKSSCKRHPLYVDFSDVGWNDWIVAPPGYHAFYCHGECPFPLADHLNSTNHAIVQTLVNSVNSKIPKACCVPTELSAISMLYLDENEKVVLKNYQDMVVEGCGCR
# Experimental: Briefly, peptide stock solutions were made by dissolving the powder in 100% DMSO to make a 10 mM solution of peptide, water was then added for a final stock concentration of peptide of 1 mM in 10% DMSO. Serial dilutions of the peptide were made in PBS-T. A dilution series of BMP-2 with concentrations ranging from 100 nM to 0.1 nM was immobilized onto the wells of microtiter plates (Immulon-4® HBX from Dynex Technologies, Chantilly, Va.) and blocked with 1% BSA. […] The […] were washed 3 times with PBS-T. Streptavidin-alkaline phosphatase (SA-AP) from USB (United States Biochemical, catalog #11687) was added (1:1000 in PBS-T) and incubated 1 hour at room temperature with shaking. The plates were washed 3 times with PBS-T and the amount of peptide:SA-AP was determined by adding PNPP (Sigma-Aldrich, Inc., SigmaFast tablets, catalog #N1891) and allowing the color to develop for about 10 minutes.
# To confirm these BMP binding results, the peptides were also tested in an alternate assay format in which the peptide and BMP2 were allowed to bind in solution and then assayed. Briefly, the peptides were synthesized with a biotin group attached to the ε amino group of a lysine residue at the C-terminus of the peptide. […] The plates were washed with TBS-Tween™ 20 and the antibody binding was detected using the chromogenic AP substrate pNPP. […]
# BMP-4 = target: T2, BMP-4 (Homo sapiens, UniProt P12644); assay: Binding of biotinylated peptides to BMP-4 (FIG. 12); settings: biotinylated peptide
# T2 sequence (P12644 293-408): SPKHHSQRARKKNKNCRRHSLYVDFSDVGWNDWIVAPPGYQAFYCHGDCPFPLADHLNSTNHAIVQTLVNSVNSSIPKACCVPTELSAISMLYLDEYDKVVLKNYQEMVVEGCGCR
# BMP-7 = target: T3, BMP-7 (Homo sapiens, UniProt P18075); assay: Binding of biotinylated peptides to BMP-7 (FIG. 12); settings: biotinylated peptide
# T3 sequence (P18075 293-431): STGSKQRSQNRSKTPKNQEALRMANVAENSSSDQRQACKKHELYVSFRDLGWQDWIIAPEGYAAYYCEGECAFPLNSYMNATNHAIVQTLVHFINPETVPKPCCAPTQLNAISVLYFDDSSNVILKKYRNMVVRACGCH
# [1] = for binding to titanium: FIG. 3; for EC50: read-out: [peptide] ½ maximal signal (relative affinity for titanium), biotin-conjugated peptide, titanium beads, 1 hour room temperature, absorbance 405 nm
# Experimental: AFF6007 and AFF6010 were prepared at 200 μM.
# Beads were washed two times with PBS/Tween™ 20.
substance,measurement,setting,value
DVNSIWMSRVIEWTYDSGSSGKSRSSDSAFSSFSALEGSVVSR-NH2 [AFF7008],BMP retained on collagen sponge,BMP on collagen sponge,"increase the amount of BMP on the sponge when compared to no IFBM, but to a lesser extent than AFF7010"
DVNSIWMSRVIEWTYDSGSSGKSSDWGVVASAWDAFEALDASR-NH2 [AFF7017],BMP retained on collagen sponge,BMP on collagen sponge,"increase the amount of BMP on the sponge when compared to no IFBM, but to a lesser extent than AFF7010"
DVNSIWMSRVIEWTYDSGSSGKSSFEPLRFPLKGVPVSR-NH2 [AFF7006],amount of BMP-2 retained on collagen with increasing IFBM concentration,BMP on collagen sponge,leads to a larger amount of BMP-2 that is retained on the collagen
DVNSIWMSRVIEWTYDSGSSGKSSSVDLYFPLKGDVVSR-NH2 [AFF7010],BMP retained on collagen sponge,BMP on collagen sponge,retains more BMP on the sponge than the sponges without IFBM
same,amount of BMP-2 retained on collagen with increasing IFBM concentration,BMP on collagen sponge,leads to a larger amount of BMP-2 that is retained on the collagen
SRGGEAAAGAWVSFSALESSR [compound 2007],binding to BMP-2,BMP-2,bound
same,binding to BMP-4,BMP-4,bound
same,binding to BMP-7,BMP-7,bound
SSDWGVVASAWDAFEALDASR [compound 2011],binding to BMP-2,BMP-2,bound
same,binding to BMP-4,BMP-4,bound
same,binding to BMP-7,BMP-7,bound
SSFEPLRFPLKGVPVSRGSSGKDVNSIWMSRVIEWTYDS-NH2 [AFF7005],amount of BMP-2 retained on collagen with increasing IFBM concentration,BMP on collagen sponge,leads to a larger amount of BMP-2 that is retained on the collagen
SSSDKCHKHWYCYESKYGGSGSSGK [AFF6007],binding to titanium,[1],bind to titanium
same,EC50,[1],0.35 µM
SSSDKSHKHWYSYESKYGGSGSSGK [AFF6010],decrease of affinity for titanium on elimination of the cysteine residues of AFF6007,[1]; AFF6010 versus AFF6007,about 10 fold
same,binding to titanium,[1],bind to titanium
same,EC50,[1],3 µM
SSSVDLYFPLKGDVVSRGSSGKDVNSIWMSRVIEWTYDS-NH2 [AFF7009],amount of BMP-2 retained on collagen with increasing IFBM concentration,BMP on collagen sponge,leads to a larger amount of BMP-2 that is retained on the collagen
